These results are taken from US20070249822A1, “Photolabile Coumarinylmethyl Esters of Cyclic Nucleotides, Methods for their Preparation and Their Use” (Forschungsverbund Berlin E.V., priority 2000, published 2007).

Data set [1] is described as follows: Solubility of coumarinylmethyl-caged cyclic nucleotides in acetonitrile/HEPES buffer (saturation concentration by HPLC). It counts as physicochemical. The settings on record: acetonitrile/HEPES buffer (5:95), pH 7.2, room temperature. The method, then:
Comparison of the Solubilities of Miscellaneous coumarinyl-methyl-caged Cyclic Nucleotides in Acetonitrile/HEPES Buffer (5:95) at pH 7.2 and Room Temperature
A suspension of the compounds in the specified solvent was treated for 5 min in an ultrasonic bath, undissolved components were removed by centrifugation, and the concentration in the solution was determined using HPLC. The following saturation concentrations were determined: […]

The subject of data set [2] is olfactory cGMP-dependent cation channel. Kind of data set: Activation of the olfactory cGMP-dependent cation channel upon photolysis of caged cGMP. It counts as cell-based. Conditions: for activation of the olfactory cGMP-dependent cation channel upon photolysis: HEPES buffer. The source says: The new photolabile cGMP and cAMP esters can be used successfully in the investigation of cyclic nucleotide-controlled processes.

The conditions of data set [3]: cited from earlier work.
In data set [4] the test system is cyclic nucleotide-dependent ion channel CNCα3 (from olfactory cells). Nature of the data set: Whole cell measurements on HEK293 cells: activation of CNCα3 by photolytic liberation of cAMP. It counts as cell-based. Conditions: axial form, 500 μM intracellular solution, UV flashes 10 to 200 ms; versus 200 μM DMN-caged cGMP on CNCα2, equal exposures. The source says: Activation of Cyclic Nucleotide-Dependent Ion Channels by Photolytic Liberation of Cyclic Nucleotides from the Corresponding Caged Compounds
Using whole cell measurements on HEK293 cells, the activation of the cyclic nucleotide-dependent ion channel CNCα3 (from olfactory cells) by photolytic liberation of cAMP from the axial form of the compound of Example 1 ([…]) and of the cyclic nucleotide-dependent ion channel CNCα2 (from rod photoreceptors) by photolytic liberation of cGMP from the axial form of 4,5-dimethoxy-2-nitrobenzyl ester of cGMP [DMN-caged cGMP, produced according to J. M. Nerbonne, S. Richard, J. Nargeot, H. A. Lester, Nature 310, 74 (1984)] was investigated comparatively by electrophysiological means.

The conditions of data set [5]: cited from earlier work. The source holds these as a separate data set.

Take “(7-Methoxycoumarin-4-yl)methyl-caged 8-Br-cGMP [(7-Methoxycoumarin-4-yl)methyl-caged 8-Br-cGMP (axial)]”: the saturation concentration in data set [1] came out at 40 µM.

In the case of `COc1ccc2c(COP3(=O)OCC4OC(n5cnc6c(=O)[nH]c(N)nc65)C(O)C4O3)cc(=O)oc2c1` (stereo not drawn) [7-methoxycoumarinylmethyl-caged cGMP], the “activation of the olfactory cGMP-dependent cation channel upon photolysis” value in data set [2] is “not more than partially”.

For `COc1ccc2c(COP3(=O)OCC4OC(n5cnc6c(N)ncnc65)C(O)C4O3)cc(=O)oc2c1` (single isomer, unassigned) [equatorial isomer of the (7-methoxycoumarin-4-yl)methyl ester of cAMP, (7-methoxycoumarin-4-yl)methyl ester of cAMP], the hydrolytic halflife in data set [3] (Ringer's solution) is 60 h.

Regarding `Nc1ncnc2c1ncn2C1OC2COP(=O)(OCc3cc(=O)oc4cc(OCC(=O)O)c(OCC(=O)O)cc34)OC2C1O` (stereo not drawn) [Example 1, [6,7-Bis(carboxymethoxy)coumarin-4-yl]methyl ester of cAMP], the “concentration of liberated cyclic nucleotide” value in data set [4] is recorded as “substantially higher concentrations of liberated cyclic nucleotide”.

“(7-Methoxycoumarin-4-yl)methyl-caged 8-Br-cGMP [(7-Methoxycoumarin-4-yl)methyl-caged 8-Br-cGMP (equatorial)]” returned a saturation concentration in data set [1] of 20 µM.

With `Nc1nc2c(ncn2C2OC3COP(=O)(OCc4cc(=O)oc5cc(OCC(=O)O)ccc45)OC3C2O)c(=O)[nH]1` (stereo not drawn) [Example 3], the “activation of the olfactory cGMP-dependent cation channel upon photolysis” value in data set [2] is recorded as “complete activation”.

Turning to “(7-Methoxycoumarin-4-yl)methyl-caged cGMP [(7-Methoxycoumarin-4-yl)methyl-caged cGMP (axial)]”, the saturation concentration in data set [1] worked out at 15 µM.

As to `Nc1nc2c(ncn2C2OC3COP(=O)(OCc4cc(=O)oc5cc(OCC(=O)O)c(OCC(=O)O)cc45)OC3C2O)c(=O)[nH]1` (stereo not drawn) [Compound 10, [6,7-bis(carboxymethoxy)coumarin-4-yl]methyl ester of cGMP], the “amount of incident light for comparable activation of the channel” value in data set [2] (333 nm, compared to the 4,5-dimethoxy-2-nitro-benzyl ester of cGMP) is listed as “substantially smaller amounts of incident light”.

Consider `Nc1ncnc2c1ncn2C1OC2COP(=O)(OCc3cc(=O)oc4cc(OCC(=O)O)ccc34)OC2C1O` (stereo not drawn) [[7-(Carboxymethoxy)coumarin-4-yl]methyl-caged cAMP (axial)], for which, in data set [1], the saturation concentration was found to be 900 µM.

“(7-Methoxycoumarin-4-yl)methyl-caged cAMP” displayed a saturation concentration in data set [1] of 15 µM.

For the compound `Nc1nc2c(ncn2C2OC3COP(=O)(OCc4cc(=O)oc5cc(OCC(=O)O)c(OCC(=O)O)cc45)OC3C2O)c(=O)[nH]1` (stereo not drawn) [[6,7-Bis(carboxymethoxy)coumarin-4-yl]methyl-caged cGMP (equ], the saturation concentration in data set [1] is > 100 µM.

For `Nc1ncnc2c1ncn2C1OC2COP(=O)(OCc3ccc4c(c3)C(=O)c3ccccc3C4=O)OC2C1O` (stereo not drawn) [(anthraquinon-2-yl)methyl ester of cAMP], in data set [5], the “solubility in aqueous buffer solutions” value is recorded as “insufficient solubility”.

“(7-Methoxycoumarin-4-yl)methyl-caged cGMP [(7-Methoxycoumarin-4-yl)methyl-caged cGMP (equatorial)]” yielded a saturation concentration in data set [1] of 25 µM.

Consider `Nc1ncnc2c1ncn2C1OC2COP(=O)(OCc3ccc4ccccc4c3)OC2C1O` (stereo not drawn) [(naphth-2-yl)methyl ester of cAMP], for which, in data set [5], the “solubility in aqueous buffer solutions” value is “insufficient solubility”.

As to `Nc1ncnc2c1ncn2C1OC2COP(=O)(OC(C(=O)c3ccccc3)c3ccccc3)OC2C1O` (stereo not drawn) [desyl ester of cAMP], the sensitivity to solvolysis result in data set [3] (aqueous buffer solutions) was “sensitive to solvolysis”.
